Measured values as given in patent publication US20210154162A1, “DRUG AND PHARMACEUTICAL COMPOSITION CONTAINING TRANSPORT PROTEIN INHIBITOR, AND USE” (Institute of Basic Medical Sciences Chinese Academy of …, priority 2018, published 2021).

Legend:
PAT4 and SLC7A8 [1] = assay: PAT4 and SLC7A8 expression in CD8+ T cells from breast cancer patients (real-time PCR); type: cell-based, human; settings: Kyn/DMF (20 μM) or Kyn/CH (50 μM), 48 h
Description: (8) CD8^+ T cells from breast cancer patients were treated with PBS, Kyn ([…] (20 μM) or Kyn/CH (50 μM) for 48 h. The expression of PAT4 and SLC7A8 was determined by real-time PCR. The determination results were as shown in FIG. 7I.

B16 melanoma = assay: B16 melanoma-bearing C57BL/6 mice treated with Kyn, DMF or Kyn+DMF; type: in vivo, mouse
Description: (9) C57BL/6 mice with 5×5 mm B16 melanoma were treated with PBS, Kyn (50 μg/mouse, i.p., once every two days), DMF (5 μg/mouse, o.t., once every day) or Kyn+DMF for 6 days. PD-1 expression in CD8^+ T cells isolated from tumors was determined by flow cytometry (n=5). (14) The experimental steps were the same as those of step (9), except that the tumors were weighed. The weighing results were as shown in FIG. 6P. *p<0.05, **p<0.01; #p<0.05, ##p<0.01, as compared with CTL group. The data represented mean±SEM.

PD-1 [2] = assay: PD-1 expression in human CD8+ T cells treated with Kyn and AhR inhibitors (flow cytometry); type: cell-based; settings: 48 h
Description: (4) CD8^+ T cells isolated from PBMCs of patients with breast cancer or lung cancer were activated by anti-CD3/CD28 beads and treated with PBS, Kyn (200 μM) or Kyn/DMF (20 μM) for 48 h. The expression of PD-1 was determined by flow cytometry.
(5) CD8^+ T cells isolated from patients with breast cancer or lung cancer were treated with DMF (20 μM) for 48 h. PD-1 expression was determined by flow cytometry (n=6).

OVA-B16 melanoma = OVA-B16 melanoma mice, adoptive OT-1 CD8+ T cell transfer plus DMF or anti-PD-1 antibody; type: in vivo; settings: anti-PD-1 antibody 250 μg/day or DMF 5 μg/mouse twice every day
Description: (13) C57BL/6 mice with 5×5 mm OVA-B16 melanoma were adoptively transferred with or without OT-1 CD8^+ T cells (4×10^6 cells/mouse) once per three days for three times. At the same time, these mice were treated with PBS, DMF (5 μg/mouse, o.t., twice every day) or anti-PD-1 neutralizing antibody (250 μg/day, once every two days, twice) for 20 days. The tumor growth was measured (left) and the long-term survival rate was analyzed (right).

AhR = assay: PD-1 expression in activated CD8+ T cells treated with Kyn plus AhR inhibitor (flow cytometry); type: cell-based, mouse; settings: Kyn plus inhibitor (DMF 10 or 20 μM), 72 h
Description: (4) CD8^+ T cells activated by anti-CD3/CD28 beads were treated with PBS, Kyn or Kyn/DMF (10 or 20 μM) for 72 h. The expression of PD-1 was determined by flow cytometry.

PD-1 [3] = assay: OVA-B16 melanoma-bearing mice with adoptively transferred CFSE-labeled OT-1 T cells, PD-1 expression; type: in vivo, mouse; settings: DMF 5 μg/mouse, 6 days; CFSE+ T cells from tumor mass, spleen or lymph nodes
Description: (6) C57BL/6 mice with 5×5 mm OVA-B16 melanoma were adoptively transferred with CFSE-labeled OT-1 CD8^+ T cells (4×10^6 cells/mouse, once every three days) on three occasions. At the same time, some mice were i.p. injected with Kyn (50 μg/mouse, once every two days) for three times. On Day 7 after transferring, CFSE^+CD8^+ T cells were isolated from tumor for flow cytometric analysis of PD-1 expression.
(8) The experimental steps were the same as those of step (7), except that C57BL/6 mice were treated with Kyn, DMF (5 μg/mouse, o.t., twice every day) or Kyn+DMF for 6 days. CFSE^+CD8^+ T cells from tumor were isolated for flow cytometric analysis of PD-1 expression.

PD-1 [4] = assay: ID8 ovarian cancer and H22 hepatocarcinoma ascites peritoneal tumor models; type: in vivo, mouse; settings: DMF
Description: (10) C57BL/6 mice were intraperitoneally injected with 1×10^6 ID8 ovarian cancer cells. After 10 days, mice were intraperitoneally administered with PBS, Kyn, DMF or Kyn+DMF for 6 days. CD8^+ T cells from ascites were isolated and PD-1 expression was determined by flow cytometry (n=5).

PAT4 and SLC7A8 [5] = assay: PAT4 and SLC7A8 expression in activated CD8+ T cells (real-time PCR, immunostaining); type: cell-based, mouse
Description: (2) Activated CD8^+ T cells were treated with PBS or Kyn (200 μM) for 24 h. The expression of PAT4 and SLC7A8 was determined by real-time PCR (left) and immunostaining (right). Bar, […].
(6) The mRNA expression of PAT4 and SLC7A8 was determined in activated CD8^+ T cells treated with PBS, Kyn, Kyn/CH-223191 (10 μM) or Kyn/DMF (20 μM) for 48 h.

SLC1A5 [6] = assay: SLC1A5 expression in TRCs upon IFN-γ; type: cell-based; settings: IFN-γ treatment, mRNA and protein levels
IDO1 = IDO1 expression in TRCs upon IFN-γ; type: cell-based
B16 TRCs = assay: Kyn release by IFN-γ-treated tumor cells (ELISA of supernatants); type: cell-based, mouse; settings: IFN-γ 10 ng/ml, 24 h
Description: (3) OVA-B16 cells grown in culture flask or OVA-B16 TRCs were treated with IFN-γ (10 ng/ml) for 24 h. Kyn levels in the supernatants were determined by ELISA.

PD-L1 = PD-L1 expression on TRCs upon IFN-γ; type: cell-based, mouse
PD-1 [7] = assay: Effect of GPNA on PD-1 expression in specific OT-1 CD8+ T cells co-cultured with 3D-cultured OVA-B16 cells; type: cell-based, mouse; settings: 3D-cultured OVA-B16 cells treated 12 h with 10 μM GPNA, co-culture 1:10, 4 h
Description: 3D-cultured OVA-B16 cells were grouped and treated with drug as follows.
(§1) Control group 1 (PBS): culture medium+PBS;
Experimental group 2 (GPNA): culture medium+10 μM GPNA;
After 12 h of treatment, the cells were co-cultured with OT-1 CD8^+ T cells that had been activated for 48 h at a ratio of 1:10, and PD-1 expression in CD8^+ T cells was determined by flow cytometry after 4 h.

[8] = molecular target: T1, tryptophan transporter SLC1A5 (Mus musculus, UniProt P51912); assay: Effect of GPNA on the uptake of tryptophan by tumor cells (ELISA of lysates); type: cell-based; settings: OVA-B16 cells, 50 ng/mL IFN-γ + 10 μM GPNA, 24 h
T1 construct: endogenous in cells; host or cells: mouse OVA-B16 melanoma cells
T1 sequence (P51912 1-553): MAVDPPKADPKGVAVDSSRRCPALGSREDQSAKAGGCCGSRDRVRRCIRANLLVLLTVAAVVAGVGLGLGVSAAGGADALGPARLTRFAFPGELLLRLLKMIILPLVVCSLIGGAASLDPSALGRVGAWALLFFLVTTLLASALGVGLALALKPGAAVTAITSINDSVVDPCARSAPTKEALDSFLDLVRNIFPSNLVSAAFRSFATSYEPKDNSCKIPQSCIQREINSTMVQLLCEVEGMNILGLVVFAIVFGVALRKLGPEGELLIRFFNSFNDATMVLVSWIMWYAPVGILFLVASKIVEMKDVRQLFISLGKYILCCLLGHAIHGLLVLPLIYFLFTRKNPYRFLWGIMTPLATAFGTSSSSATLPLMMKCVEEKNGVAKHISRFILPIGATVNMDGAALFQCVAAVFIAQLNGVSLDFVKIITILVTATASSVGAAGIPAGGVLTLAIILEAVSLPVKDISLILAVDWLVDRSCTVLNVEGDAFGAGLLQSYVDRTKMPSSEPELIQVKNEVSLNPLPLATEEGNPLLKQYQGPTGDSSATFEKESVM
Description: Mouse OVA-B16 cells were cultured in RPMI-1640 culture medium in vitro and were group and treated as follows.
as §1
Control group 2 (GPNA): culture medium+10 μM GPNA;
Experimental group 3 (IFN-γ): culture medium+50 ng/mL IFN-γ;
Experimental group 4 (IFN-γ+GPNA): culture medium+50 ng/mL IFN-γ+10 μM GPNA;
The cells in each group were collected after 24 h and ultrasonically broken, the concentrations of tryptophan in the lysates were determined by ELISA, and BCA protein assay was carried out at the same time.

SLC1A5 [9] = molecular target: T2, SLC1A5 (Mus musculus, UniProt P51912); assay: Tryptophan levels in B16 TRC lysates (ELISA); type: cell-based
T2 construct: endogenous in cells; host or cells: B16 tumor-repopulating cells (TRCs)
T2 sequence (P51912 1-553): T1 sequence (P51912 1-553)
Description: (8) Tryptophan levels in cell lysates were determined by ELISA in scramble- and shSLC1A5-(Sh1 or Sh2)-B16 TRCs in the presence or absence of IFN-γ for 24 h.

OVA-B16 TRCs = assay: OVA-B16 TRC / activated OT-1 T cell co-culture with IDO1 or SLC1A5 blockade (flow cytometry); type: cell-based, mouse; settings: for expression of IFN-γ, TNF-α and CD107a: T cells in co-culture with OVA-B16 TRCs; for PD-1 expression on T cells: co-culture with OVA-B16 TRCs, 24 h; for TRC apoptosis: co-culture with activated OT-1 T cells, 4 h
Description: (7) Scramble- or shIDO1-(Sh1 or Sh2)-OVA B16 TRCs were co-cultured with anti-CD3/CD28 bead-activated OT-1 T cells. After 4 h or 24 h, TRC apoptosis (as shown in FIG. 2G) or PD-1 expression on T cells (as shown in FIG. 2H) was analyzed by flow cytometry. The analysis results were as shown in FIG. 2G and FIG. 2H, respectively.
(9) Scramble- and shSLC1A5-(Sh1 or Sh2)-OVA B16 TRCs were co-cultured with anti-CD3/CD28 bead-activated OT-1 T cells. After 4 h or 24 h, TRC apoptosis (as shown in FIG. 2J) or PD-1 expression (as shown in FIG. 2K) was analyzed by flow cytometry. The analysis results were as shown in FIG. 2J and FIG. 2K, respectively.

PD-1 [10] = assay: PD-1 expression in patients' peripheral blood T cells treated with supernatants of IFN-γ-treated CD45- tumor cells; type: cell-based, human; settings: CD45- tumor cells treated with IFN-γ with or without 1-MT 24 h; supernatants on T cells 24 h
Description: Moreover, very high PD-1 expression was found in tumor-infiltrating CD8^+ T cells of breast and colon cancer patients (FIG. 7A). […] It was worth noting that Kyn levels were strongly correlated with PD-1 expression in breast and colon cancer patients, but not in healthy people (FIG. 7C). To clarify the cellular source of the Kyn production, CD45^+ immune cells and CD45^− tumor cells isolated from breast tumor tissues (n=10) and colon tumor tissues (n=14) of patients were analyzed. IDO1 expression as well as Kyn levels were dominantly high in CD45^− cells rather than CD45^+ cells. Then, the inventors treated CD45^− tumor cells with IFN-γ in the presence or absence of 1-MT for 24 hours in vitro. The supernatants were used to treat peripheral blood T cells of patients for 24 hours.

## COc1ccc(-c2cc(=O)c3ccccc3o2)cc1OC [DMF, 3′,4′-dimethoxyflavone]
PAT4 and SLC7A8 [1]
  Kyn-induced upregulation of SLC7A8 and PAT4: blocked
B16 melanoma; Kyn+DMF
  accelerated tumor growth seen with Kyn-treatment: reversed
B16 melanoma; Kyn+DMF (5 μg/mouse), 6 days
  Kyn-induced PD-1 upregulation in CD8+ T cells isolated from tumor, spleen or lymph nodes: blocked
PD-1 [2]; human CD8+ T cells, Kyn plus inhibitor (DMF 20 μM)
  Kyn-induced PD-1 upregulation: inhibited
PD-1 [2]; patients' CD8+ T cells, DMF alone 20 μM
  PD-1 expression: directly downregulate PD-1 expression
OVA-B16 melanoma
  therapeutic effect of adoptively transferred OVA-specific CD8+ T cells (tumor growth, survival): equal treatment efficiency
AhR
  Kyn-dependent upsurge of PD-1: thwarted
PD-1 [3]
  Kyn-triggered upregulation of PD-1 expression in tumor-specific CD8+ T cells: abrogated
PD-1 [4]
  expression pattern of PD-1, IFN-γ and TNF-α: reversed
PAT4 and SLC7A8 [5]; activated CD8+ T cells, Kyn/CH-223191 (10 μM) or Kyn/DMF (20 μM), 48 h
  Kyn-induced upregulation of SLC7A8 and PAT4: effectively inhibiting

## IFN-γ: recombinant IFN-γ purchased from R & D Systems
SLC1A5 [6]
  expression of SLC1A5: further augmented
IDO1
  IDO1 expression: further upregulated
B16 TRCs
  Kyn levels in the supernatants: release high levels of Kyn
PD-L1
  expression of PD-L1: upregulated
PAT4 and SLC7A8 [5]; CD8+ T cells, IFN-γ treatment
  expression of PAT4 and SLC7A8: did not affect

## N[C@@H](CCC(=O)Nc1ccc([N+](=O)[O-])cc1)C(=O)O [GPNA, L-γ-Glutamyl-p-nitroanilide]
PD-1 [7]
  PD-1 expression in specific OT-1 CD8+ T cells: significantly inhibit
[8]
  uptake of tryptophan by tumor cells: significantly reduced
SLC1A5 [9]
  intracellular levels of tryptophan in TRCs: decreased
OVA-B16 TRCs
  expression of IFN-γ, TNF-α and CD107a: upregulation
  PD-1 expression on T cells: downregulation
  TRC apoptosis: more TRC apoptosis

## Cn1cc(C[C@@H](N)C(=O)O)c2ccccc21 [1-MT]
PD-1 [10]
  PD-1 upregulation in CD8+ T cells by supernatants: blocked
OVA-B16 TRCs
  expression of IFN-γ, TNF-α and CD107a: upregulation
  PD-1 expression on T cells: downregulation
  TRC apoptosis: more TRC apoptosis
